Patent US11939300B2, “Compounds and methods for treating autoimmune disorders by targeting HLA-DQ2” (ImmunoMolecular Therapeutics, Inc., priority 2020, dated 2024)

Tested on: HLA-DQ2
Assay: Inhibition of IL-2 secretion by TCR transductants stimulated by α-gliadin peptides presented by HLA-DQ2 expressing K562 cells (ELISA)
Type: cell-based, human
Details: for DQ2 IL2 Maximal % Inhibition: IL-2 secretion, TCR transductants (α I- or α II-gliadin) + gliadin peptide + HLA-DQ2 K562 cells, at the concentration given in brackets; for concentration at which the compound exhibited maximum % inhibition (DQ2 IL2): from dose-response curve, figure in brackets in the cell
Description: Three commercially available analogues of the DQ2 binding molecules of the invention were tested for their ability to inhibit stimulation of T cell receptor (TCR) transductants in the presence of HLA-DQ2 expressing cells presenting known α-gliadin epitopes.
Using a previously published in vitro assay (Ostrov D, et al. Methyldopa blocks MHC class II binding to disease specific antigens in autoimmune diabetes. J Clin Invest. 2018:128(5)) we measured the ability of these DQ2 binding analogues to inhibit interleukin-2 (IL-2) secretion by TCR transductants stimulated by α-gliadin peptides presented by HLA-DQ2. Individual TCR transductants (recognizing α I-gliadin or α II-gliadin) were cultured with a gliadin peptide plus the small molecule analogues in the presence of HLA-DQ2 expressing K562 cells serving as antigen presenting cells. TCR transductants cultured with no gliadin peptide served as the negative control, and incubation with an anti-CD3 antibody (eBioscience; clone 2C11) served as a positive control for the TCR transductant. Secreted IL-2 in the culture supernatant was measured using a highly sensitive enzyme-linked immunosorbent assay (ELISA). […] Assays for effects on cell viability and for specificity, assayed in the absence of gliadin peptide or in the presence of a stimulating anti-CD3 antibody, were performed. A=71-100%; B=41-70%; C=11-40%; D=0-10%, NT=Not tested.

Row | Compound | DQ2 IL2 Maximal % Inhibition | concentration at which the compound exhibited maximum % inhibition (DQ2 IL2) [µM]
1 | O=C(NC1CCc2n[nH]c(=O)cc2C1)c1ccccc1 (centres unmarked) [Compound 1] | C (C=11-40%) | 50
2 | Cc1ccc(C(=O)NC2CCc3n[nH]c(=O)cc3C2)cc1 (centres unmarked) [Compound 2] | C (C=11-40%) | 100
3 | CCCc1ccc(C(=O)NC2CCc3n[nH]c(=O)cc3C2)cc1 (centres unmarked) [Compound 3] | B (B=41-70%) | 100
4 | CC(C)c1ccc(C(=O)NC2CCc3n[nH]c(=O)cc3C2)cc1 (centres unmarked) [Compound 4] | A (A=71-100%) | 200
5 | CCCCc1ccc(C(=O)NC2CCc3n[nH]c(=O)cc3C2)cc1 (centres unmarked) [Compound 5, 4-n-butyl-N-(3-oxo-5,6,7,8-tetrahydrocinnolin-6-yl)benzamide] | D (D=0-10%) | 50
6 | CC(=O)NC1CCc2n[nH]c(=O)cc2C1 (centres unmarked) [Compound 6] | C (C=11-40%) | 50
7 | CCC(=O)NC1CCc2n[nH]c(=O)cc2C1 (centres unmarked) [Compound 7] | D (D=0-10%) | 200
8 | CCCC(=O)NC1CCc2n[nH]c(=O)cc2C1 (centres unmarked) [Compound 8] | D (D=0-10%) | 200
9 | CCCCC(=O)NC1CCc2n[nH]c(=O)cc2C1 (centres unmarked) [Compound 9] | C (C=11-40%) | 100
10 | CC(C)(C)C(=O)NC1CCc2n[nH]c(=O)cc2C1 (centres unmarked) [Compound 10] | D (D=0-10%) | 200
11 | O=C(NC1CCc2n[nH]c(=O)cc2C1)C1CC1 (centres unmarked) [Compound 11] | D (D=0-10%) | 200
12 | O=C(NC1CCc2n[nH]c(=O)cc2C1)C1CCCCC1 (centres unmarked) [Compound 12] | C (C=11-40%) | 0.1
13 | CC(C)(C)c1ccc(C(=O)NC2CCc3n[nH]c(=O)cc3C2)cc1 (centres unmarked) [Compound 13] | D (D=0-10%) | 0.1
14 | O=C(NC1CCc2n[nH]c(=O)cc2C1)c1ccc(C2CCCCC2)cc1 (centres unmarked) [Compound 14] | B (B=41-70%) | 200
15 | CC(C)C(=O)NC1CCc2n[nH]c(=O)cc2C1 (centres unmarked) [Compound 15] | C (C=11-40%) | 100
16 | Cn1nc2c(cc1=O)CC(NC(=O)c1ccccc1)CC2 (centres unmarked) [Compound 16, N-(2-methyl-3-oxo-5,6,7,8-tetrahydrocinnolin-6-yl)benzamide] | B (B=41-70%) | 100
17 | Cn1nc2c(cc1=O)CC(NC(=O)c1ccc3ccccc3c1)CC2 (centres unmarked) [Compound 17] | A (A=71-100%) | 100
18 | CC(=O)NC1CCc2nn(C)c(=O)cc2C1 (centres unmarked) [Compound 18] | C (C=11-40%) | 100
19 | Cn1nc2c(cc1=O)CC(NC(=O)C1CCCCC1)CC2 (centres unmarked) [Compound 19] | B (B=41-70%) | 100
20 | Cc1ccc(C(=O)NC2CCc3nn(C)c(=O)cc3C2)cc1 (centres unmarked) [Compound 20] | B (B=41-70%) | 200
21 | Cn1nc2c(cc1=O)CC(NC(=O)c1ccc(C(F)(F)F)cc1)CC2 (centres unmarked) [Compound 21] | A (A=71-100%) | 100
22 | Cn1nc2c(cc1=O)CC(NC(=O)c1cccc3ccccc13)CC2 (centres unmarked) [Compound 22] | C (C=11-40%) | 200
23 | CCCC(=O)NC1CCc2nn(C)c(=O)cc2C1 (centres unmarked) [Compound 23] | C (C=11-40%) | 100
24 | Cn1nc2c(cc1=O)CC(NC(=O)C(C)(C)C)CC2 (centres unmarked) [Compound 24] | C (C=11-40%) | 100
25 | Cn1nc2c(cc1=O)CC(NC(=O)C1CC1)CC2 (centres unmarked) [Compound 25] | C (C=11-40%) | 200

Row | Compound | DQ2 IL2 Maximal % Inhibition | concentration at which the compound exhibited maximum % inhibition (DQ2 IL2) [µM]
26 | O=C(NC1CCc2n[nH]c(=O)cc2C1)c1ccc(F)cc1 (centres unmarked) [Compound 28] | C (C=11-40%) | 200
27 | O=C(NC1CCc2n[nH]c(=O)cc2C1)c1ccc(Cl)cc1 (centres unmarked) [Compound 29] | B (B=41-70%) | 200
28 | O=C(NC1CCc2n[nH]c(=O)cc2C1)c1ccc(Br)cc1 (centres unmarked) [Compound 30] | C (C=11-40%) | 200
29 | O=C(NC1CCc2n[nH]c(=O)cc2C1)c1ccc(I)cc1 (centres unmarked) [Compound 31] | C (C=11-40%) | 200
30 | Cn1nc2c(cc1=O)CC(NC(=O)c1ccc(F)cc1)CC2 (centres unmarked) [Compound 32] | C (C=11-40%) | 200
31 | Cn1nc2c(cc1=O)CC(NC(=O)c1ccc(Cl)cc1)CC2 (centres unmarked) [Compound 33] | B (B=41-70%) | 200
32 | Cn1nc2c(cc1=O)CC(NC(=O)c1ccc(Br)cc1)CC2 (centres unmarked) [Compound 34] | A (A=71-100%) | 200
33 | Cn1nc2c(cc1=O)CC(NC(=O)c1ccc(I)cc1)CC2 (centres unmarked) [Compound 35] | B (B=41-70%) | 200
34 | CCc1ccc(C(=O)NC2CCc3nn(CC)c(=O)cc3C2)cc1 (centres unmarked) [Compound 36] | B (B=41-70%) | 200
35 | CCCn1nc2c(cc1=O)CC(NC(=O)c1ccc(CC)cc1)CC2 (centres unmarked) [Compound 37] | B (B=41-70%) | 200
36 | CCc1ccc(C(=O)NC2CCc3nn(CC(N)=O)c(=O)cc3C2)cc1 (centres unmarked) [Compound 38] | A (A=71-100%) | 200
37 | CCn1nc2c(cc1=O)CC(NC(=O)c1ccc(C(C)C)cc1)CC2 (centres unmarked) [Compound 40] | B (B=41-70%) | 200
38 | CCCn1nc2c(cc1=O)CC(NC(=O)c1ccc(C(C)C)cc1)CC2 (centres unmarked) [Compound 41] | A (A=71-100%) | 200
39 | CNC(=O)Cn1nc2c(cc1=O)CC(NC(=O)c1ccc(C(C)C)cc1)CC2 (centres unmarked) [Compound 42] | A (A=71-100%) | 200
40 | CC(C)c1ccc(C(=O)NC2CCc3nn(CC(=O)O)c(=O)cc3C2)cc1 (centres unmarked) [Compound 43] | A (A=71-100%) | 200
41 | CC(C)c1ccc(C(=O)NC2CCc3nn(C(C)C)c(=O)cc3C2)cc1 (centres unmarked) [Compound 44] | A (A=71-100%) | 200
42 | CC(C)c1ccc(C(=O)NC2CCc3nn(CC4CC4)c(=O)cc3C2)cc1 (centres unmarked) [Compound 45] | A (A=71-100%) | 200
43 | CCCCn1nc2c(cc1=O)CC(NC(=O)c1ccc(C(C)C)cc1)CC2 (centres unmarked) [Compound 46] | B (B=41-70%) | 200
44 | CC(C)c1ccc(C(=O)NC2CCc3nn(CC4CCC4)c(=O)cc3C2)cc1 (centres unmarked) [Compound 48] | A (A=71-100%) | 100
45 | CC(C)c1ccc(C(=O)NC2CCc3nn(CC4CCCCC4)c(=O)cc3C2)cc1 (centres unmarked) [Compound 49] | A (A=71-100%) | 200
46 | CC(C)c1ccc(C(=O)NC2CCc3nn(Cc4ccccc4)c(=O)cc3C2)cc1 (centres unmarked) [Compound 50] | A (A=71-100%) | 200
47 | COCCn1nc2c(cc1=O)CC(NC(=O)c1ccc(C(C)C)cc1)CC2 (centres unmarked) [Compound 51] | B (B=41-70%) | 200
48 | CC(C)c1ccc(C(=O)NC2CCc3nn(C4CC4)c(=O)cc3C2)cc1 (centres unmarked) [Compound 53] | A (A=71-100%) | 200
49 | CC(C)c1ccc(C(=O)NC2CCc3nn(C4CCCCC4)c(=O)cc3C2)cc1 (centres unmarked) [Compound 54] | A (A=71-100%) | 200
